Results as given in US9737523B2, “Anti-fibrogenic compounds, methods and uses thereof” (priority 2013, dated 2017).

Key:
ERK1/2 = assay: Human phospho-kinase array in dermal fibroblasts; type: cell-based; conditions: 100 μg/ml, after 1 hour of treatment
Protocol: Protein phosphorylation was evaluated using the Human Phospho-Kinase Array™ (R&D System™) according to the manufacturer's instructions. Briefly, capture and control antibodies were spotted in duplicate on nitrocellulose membranes (total 46 kinase phosphorylation sites). Cell lysates (300 μg of total protein per array) were incubated with array overnight. The array was washed to remove unbound proteins, followed by incubation with the cocktail of biotinylated detection antibodies. After incubation with streptavidin-HPR for 30 minutes, signals were visualized by ECL detection system (Santa Cruz™). Blots were analyzed by densitometry, and protein Phosphorylation was Normalized to a Positive Control which was Represented in Each Membrane.

IMR-90 = assay: MMP-1 expression in lung fibroblast cell line IMR-90, Western blot; type: cell-based, human; conditions: IMR-90, 12.5 μg/ml to 150 μg/ml, 48 hours
Protocol: (§1) The squamous cell carcinoma (UMSCC) cell line derived from patients with head and neck cancer (ATCC™, Manassas, Va.) were maintained in RPMI-1640 medium with 10% FBS. The Human keratinocyte cell line HACAT (ATCC) and the carcinomic human alveolar basal epithelial cell line A549 (ATCC™) were cultured in DMEM with 10% FBS. The diploid lung fibroblasts IMR-90 (ATCC™) were maintained in Minimum Essential Medium (MEM, Invitrogen™) with 10% FBS.
(§2) Similarly, other cells such as synoviocytes, IMR-90, keratinocytes, UMSCC and A549 were treated with kynurenine at concentrations of 12.5 to 150 μg/ml in appropriate media for each cell type as described above for 48 hours. Cells were then harvested for western blot analysis.
(§3) Cells were harvested by Trypsin/EDTA and lysed with cell lysis buffer containing 50 mM Tris-HCl (pH7.40), 150 mM NaCl, 10 mM EDTA, 5 mM EGTA, 1% TritonX-100™, 0.5% Igepal CA-630, 0.025% NaN3 and protease inhibitor cocktail (Sigma™). Cell debris was removed by centrifugation at 20,000×g for 10 minutes. The protein concentration in supernatant was determined using the MicroBCA™ method (Pierce™, Rockford, Ill.). Proteins in supernatant were mixed with protein sample loading buffer (final concentration: 60 mM Tris-HCl (pH 6.80), 2% SDS, 10% glycerol, 1.5% β-mercaptoethanol, 0.002% bromophenol blue) and size fractioned by 10% of SDS-polyacrylamide gel. […]

HACAT = assay: MMP-1 expression in keratinocyte cell line HACAT, Western blot; type: cell-based, human; conditions: 12.5 to 150 μg/ml, 48 hours
Protocol: as §1, §2, §3

fibronectin = assay: Fibronectin mRNA in human dermal fibroblasts, real-time PCR; type: cell-based; conditions: various concentration
UMSCC = assay: MMP-1 expression in squamous cell carcinoma cell line UMSCC, Western blot; type: cell-based, human; conditions: 12.5 to 150 μg/ml, 48 hours
Protocol: as §1, §2, §3

type 1 procollagen = assay: Type 1 procollagen expression in dermal fibroblasts, Western blot; type: cell-based, human; conditions: 25-150 μg/ml, 48 hours
Protocol: (§4) Cell debris was removed by centrifugation at 20,000×g for 10 minutes. The protein concentration in supernatant was determined using the MicroBCA™ method (Pierce™, Rockford, Ill.). Proteins in supernatant were mixed with protein sample loading buffer (final concentration: 60 mM Tris-HCl (pH 6.80), 2% SDS, 10% glycerol, 1.5% β-mercaptoethanol, 0.002% bromophenol blue) and size fractioned by 10% of SDS-polyacrylamide gel. After proteins were transferred onto nitrocellulose membrane by iBlot™ (Invitrogen Life Technologies™), non-specific binding were blocked with phosphate buffer saline twenty 20 (PBS-T) containing 5% skim milk for 1 hour. The membrane was then incubated with primary antibody overnight. After incubation with a secondary antibody for 1 hour, protein bands were visualized by an enhanced chemiluminescence (ECL™) detection system (Santa Cruz Biotechnology™, Santa Cruz, Calif.). […] The secondary antibodies were either goat anti-mouse IgG (H+L) HPR conjugate or goat anti-rabbit IgG (H+L) HPR conjugate (Bio-rad Laboratory™ (Mississauga, ON, Canada). Secondary antibodies were used at a concentration of 1:3000.

splenocytes = assay: ConA-induced splenocyte proliferation; type: cell-based; conditions: 100 and 150 μg/ml
mouse splenocytes = assay: Immune factor protein microarray of conditioned media of ConA-activated splenocytes; type: cell-based; conditions: 100 μg/mL, 48 hrs
dermal keratinocytes = assay: MMP-1 expression in primary dermal keratinocytes, Western blot; type: cell-based, human; conditions: 12.5 to 150 μg/ml, 48 hours
Protocol: Human foreskin keratinocytes were established as previously described (Ghahary et al., 1998). Cells were cultured in serum-free keratinocyte medium (KSFM; Invitrogen Life Technologies™) supplemented with bovine pituitary extract (50 μg/ml) and EGF (0.2 ng/ml). These cells were used at passages 2-5.
as §2, §3

MMP-3 = MMP-3 expression in human dermal fibroblasts, Western blot; type: cell-based; conditions: various concentrations, 48 hours, dose-dependent
Protocol: Cells were then harvested by trypsinization and western blot analysis was performed.
as §4

Nc1ccccc1C(=O)CC(N)C(=O)O (racemic) [kynurenine]
ERK1/2 activation (phospho-kinase array) (ERK1/2): activated | MMP-1 expression (IMR-90): up-regulated | MMP-1 expression versus untreated controls (HACAT): did not significantly differ | fibronectin expression (mRNA) (fibronectin): capable of down-regulating | MMP-1 expression versus untreated controls (UMSCC): did not significantly differ | expression of type 1 procollagen (type 1 procollagen): remarkably decreases | reduction in conA-induced splenocyte proliferation (splenocytes; after 48 hours): about 2 fold | reduction in conA-induced splenocyte proliferation (splenocytes; after 96 hours): ~5 fold | IL-17 production (mouse splenocytes): significantly decrease | proinflammatory cytokine and chemokine production (IL-1, IL-2, CXCL9, CXCL10) (mouse splenocytes): immune suppressive effect | MMP-1 expression versus untreated controls (dermal keratinocytes): did not significantly differ | MMP-3 expression (MMP-3): significantly increased
